This note sets out measurements from patent US10759787B2, “Benzofuran derivative, preparation method thereof and use thereof in medicine” (Jiangsu Hengrui Medicine Co., Ltd., priority 2015, dated 2020).

One experiment concerns Pfeiffer cells. Kind of experiment: In vitro anti-tumor cell growth assay (CellTiter-Glo), Pfeiffer. The class given is cell-based. To be noted: Homo sapiens, 120 h; Pfeiffer cells (A677G mutant), 5 days; read-out: IC50 for inhibiting the growth activity of tumor cells (Pfeiffer) in vitro. As to the method: Test Example 2. Assay for Determining In Vitro Anti-Tumor Cell Growth Activity of the Example Compounds of the Present Invention
This method was used to determinate the inhibitory effect of the compounds of the present invention on the growth activity of tumor cells (Pfeiffer or WSU-DLCL2) in vitro. Pfeiffer cells carry A677G mutant, and WSU-DLCL2 cells carry Y641F mutant.
The lymphoma suspension cell line (Pfeiffer or WSU-DLCL2) was cultured in a RPMI-1640 medium containing 10% inactivated Fetal Bovine Serum, 100 U/mL penicillin, and 100 μg/mL streptomycin, and incubated in an incubator with 5% carbon dioxide at 37° C. under a saturated humidity condition, and passaged every 3-4 days.
A cell sudpension was prepared with a fresh cell medium, added to a 96-well cell culture plate at 8000 cells/well (Pfeiffer) or 2000 cells/well (WSU-DLCL2), and incubated in 5% carbon dioxide at 37° C. incubator overnight. On the day of the experiment, the EZH2 test compounds (final concentration: 20000, 2000, 200, 20, 2, 0.2 nM) were added into the experimental wells for 3 parallel wells per group. A control well with the medium alone but without cells was set up to obtain the background luminescent value. The cell culture plate was incubated in an incubator with 5% carbon dioxide at 37° C. for 5 days.
After the compounds were applied to the cells for 5 days, the cell culture plate was placed at room temperature for 30 minutes, then a CellTiter-Glo reagent equal to the volume of cell culture medium was added to each well. The contents were mixed on a shaker for 10 minutes, and the […] signal values were recorded. The cell growth inhibition rate was calculated, and the formula was: cell growth inhibiton rate=[(negative control control−experimental group)/(negative control group−background luminescent value)]×100%. The IC50 values (half inhibition rate IC50, i.e., a drug concentration that is required for 50% cell growth inhibition rate) were calculated by software from the cell growth inhibiton rate and the corresponding concentration.
On the technique in general: ATP-based viability assays read luminescence as a measure of living cells.

A further experiment deals with EZH2-A677G (Homo sapiens (Human), UniProt Q15910, A677G). Kind of experiment: EZH2-A677G mutant enzyme activity assay (HTRF). The class given is biochemical. To be noted: read-out: IC50 for inhibiting the activity of enzyme EZH2-A677G. As to the method:
Histone H3 biotin labeling and S-adenosyl methionine were respectively diluted to 50 nM and 50 μM with a kinase buffer, then added to a 384-well plate at 4 μl/well. The test compound was diluted with a kinase buffer (it was diluted from the highest concentration 30 μM in 10 fold concentration gradient to 7 concentration points), then added to the 384-well microtiter plate at 4 μl/well. The plate was incubated at room temperature for 2 hours. Histone H3K27 Me3 monoclonal antibody and Streptavidin-XL665 were diluted to 30 nM and 500 nM by HTRF detection buffer, then added to the 384-well microplate at 10 µl/well and incubated for 1 hour. A well without an EZH2 enzyme and a compound was used as a negative control, and a well with an EZH2 enzyme but without a compound was used as a positive control. […] The compound logarithm concentration vs the inhibition percentage relative to the positive control well was plotted using GraphPad Prism, then the IC50 values were calculated.
In general terms: TR-FRET usually uses a lanthanide donor and a delayed reading to cut background.

Chain of EZH2-A677G (Q15910 whole entry A677G): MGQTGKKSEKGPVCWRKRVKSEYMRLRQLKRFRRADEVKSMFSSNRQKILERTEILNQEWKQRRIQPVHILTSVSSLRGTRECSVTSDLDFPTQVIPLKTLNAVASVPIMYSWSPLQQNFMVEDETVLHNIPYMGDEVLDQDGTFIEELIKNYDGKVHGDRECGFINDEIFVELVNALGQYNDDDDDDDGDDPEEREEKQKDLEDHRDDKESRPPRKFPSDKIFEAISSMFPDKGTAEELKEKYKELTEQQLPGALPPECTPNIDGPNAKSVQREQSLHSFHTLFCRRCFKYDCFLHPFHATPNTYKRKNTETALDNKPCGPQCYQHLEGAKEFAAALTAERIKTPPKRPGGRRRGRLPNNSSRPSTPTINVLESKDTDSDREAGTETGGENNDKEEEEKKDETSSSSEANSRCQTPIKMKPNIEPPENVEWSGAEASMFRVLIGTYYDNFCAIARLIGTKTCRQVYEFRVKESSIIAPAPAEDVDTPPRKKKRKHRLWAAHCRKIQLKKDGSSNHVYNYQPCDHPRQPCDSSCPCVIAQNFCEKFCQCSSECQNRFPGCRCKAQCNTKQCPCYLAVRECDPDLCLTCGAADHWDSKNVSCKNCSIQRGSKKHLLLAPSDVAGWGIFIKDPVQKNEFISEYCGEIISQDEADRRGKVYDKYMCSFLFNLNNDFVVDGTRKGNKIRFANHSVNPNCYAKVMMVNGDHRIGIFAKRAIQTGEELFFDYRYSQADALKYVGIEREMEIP
Chain of EZH2-A677G (O75530 whole entry partner): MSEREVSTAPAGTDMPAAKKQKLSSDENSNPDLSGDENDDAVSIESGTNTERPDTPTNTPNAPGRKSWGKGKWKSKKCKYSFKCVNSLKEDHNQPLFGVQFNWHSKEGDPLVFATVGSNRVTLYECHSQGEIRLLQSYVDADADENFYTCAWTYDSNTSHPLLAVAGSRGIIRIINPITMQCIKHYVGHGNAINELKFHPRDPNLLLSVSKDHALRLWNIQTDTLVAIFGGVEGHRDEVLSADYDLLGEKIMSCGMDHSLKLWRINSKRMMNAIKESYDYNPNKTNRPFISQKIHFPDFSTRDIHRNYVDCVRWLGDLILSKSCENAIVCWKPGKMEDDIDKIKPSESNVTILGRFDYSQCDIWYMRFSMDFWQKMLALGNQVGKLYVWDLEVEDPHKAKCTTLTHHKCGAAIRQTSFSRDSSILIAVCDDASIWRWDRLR
Chain of EZH2-A677G (Q15022 whole entry partner): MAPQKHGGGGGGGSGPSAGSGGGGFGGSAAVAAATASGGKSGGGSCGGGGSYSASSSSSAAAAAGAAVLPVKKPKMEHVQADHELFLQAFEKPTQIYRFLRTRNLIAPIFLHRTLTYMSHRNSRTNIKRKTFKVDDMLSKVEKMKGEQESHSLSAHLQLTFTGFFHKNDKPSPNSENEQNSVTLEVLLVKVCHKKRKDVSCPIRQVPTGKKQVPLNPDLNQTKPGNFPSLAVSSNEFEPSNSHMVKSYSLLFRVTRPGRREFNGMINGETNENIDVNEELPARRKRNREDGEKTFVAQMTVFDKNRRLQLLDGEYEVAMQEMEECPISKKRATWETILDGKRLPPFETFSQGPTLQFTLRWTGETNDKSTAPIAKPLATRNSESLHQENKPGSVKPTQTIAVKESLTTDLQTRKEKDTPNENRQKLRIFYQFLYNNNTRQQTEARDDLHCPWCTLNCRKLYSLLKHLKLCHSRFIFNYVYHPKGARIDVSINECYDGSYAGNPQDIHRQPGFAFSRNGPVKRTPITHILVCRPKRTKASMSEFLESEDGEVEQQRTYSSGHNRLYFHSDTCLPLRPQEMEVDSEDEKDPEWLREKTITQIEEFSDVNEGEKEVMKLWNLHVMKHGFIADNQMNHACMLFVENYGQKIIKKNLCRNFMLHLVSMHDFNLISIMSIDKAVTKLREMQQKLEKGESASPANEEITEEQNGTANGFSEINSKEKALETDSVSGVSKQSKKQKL
Chain of EZH2-A677G (Q09028 whole entry partner): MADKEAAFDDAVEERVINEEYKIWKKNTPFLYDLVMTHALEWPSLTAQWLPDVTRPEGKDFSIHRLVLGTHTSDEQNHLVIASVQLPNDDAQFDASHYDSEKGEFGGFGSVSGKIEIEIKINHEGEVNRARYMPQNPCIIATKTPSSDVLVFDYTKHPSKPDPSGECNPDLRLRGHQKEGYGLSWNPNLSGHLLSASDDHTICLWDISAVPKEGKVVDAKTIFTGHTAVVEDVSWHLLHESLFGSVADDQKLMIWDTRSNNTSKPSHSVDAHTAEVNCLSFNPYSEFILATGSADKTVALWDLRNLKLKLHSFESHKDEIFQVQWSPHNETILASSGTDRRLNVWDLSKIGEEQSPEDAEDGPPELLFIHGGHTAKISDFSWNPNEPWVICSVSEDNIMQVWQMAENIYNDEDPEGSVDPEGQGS
Chain of EZH2-A677G (Q6ZN18 whole entry partner): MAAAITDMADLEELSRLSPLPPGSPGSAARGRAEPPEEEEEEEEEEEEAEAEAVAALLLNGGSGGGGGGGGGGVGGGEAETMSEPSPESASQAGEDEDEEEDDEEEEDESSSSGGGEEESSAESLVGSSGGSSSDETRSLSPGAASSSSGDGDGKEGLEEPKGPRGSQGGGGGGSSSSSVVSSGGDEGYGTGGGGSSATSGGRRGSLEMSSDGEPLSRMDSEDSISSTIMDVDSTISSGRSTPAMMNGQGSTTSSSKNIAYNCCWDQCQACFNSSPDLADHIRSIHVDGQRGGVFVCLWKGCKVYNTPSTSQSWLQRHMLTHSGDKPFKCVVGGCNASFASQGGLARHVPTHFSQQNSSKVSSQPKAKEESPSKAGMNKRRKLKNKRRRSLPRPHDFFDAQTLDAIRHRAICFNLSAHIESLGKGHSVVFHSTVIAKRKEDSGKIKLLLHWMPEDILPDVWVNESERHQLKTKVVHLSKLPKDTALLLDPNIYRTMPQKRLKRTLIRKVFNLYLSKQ

With `CCc1c(N(CC)C2CCOCC2)cc2oc(CN3CCN(CC(C)(C)O)CC3)cc2c1C(=O)NCc1c(C)cc(C)[nH]c1=O` [Example 11, N-((4,6-Dimethyl-2-oxo-1,2-dihydropyridin-3-yl)methyl)-5-ethyl-6-(ethyl(tetrahydro-2H-pyran-4-yl)amino)-2-((4-(2-hydroxy-2-methylpropyl)piperazin-1-yl)methyl)benzofuran-4-carboxamide], the IC50 is 22 nM with Pfeiffer cells and 5.6 nM at EZH2-A677G.
The like results for `CCc1c(N(CC)C2CCOCC2)cc2oc(CN3CCN(C)CC3)cc2c1C(=O)NCc1c(OC)cc(C)[nH]c1=O` [Example 12, 5-Ethyl-6-(ethyl(tetrahydro-2H-pyran-4-yl)amino)-N-((4-methoxy-6-methyl-2-oxo-1,2-dihydropyridin-3-yl)methyl)-2-((4-methylpiperazin-1-yl)methyl)benzofuran-4-carboxamide] were, in that order, 22 nM and 10 nM.
The like results for `CCc1c(N(CC)C2CCOCC2)cc2oc(CN(C)C)cc2c1C(=O)NCc1c(OC)cc(C)[nH]c1=O` [Example 13, 2-((Dimethylamino)methyl)-5-ethyl-6-(ethyl(tetrahydro-2H-pyran-4-yl)amino)-N-((4-methoxy-6-methyl-2-oxo-1,2-dihydropyridin-3-yl)methyl)benzofuran-4-carboxamide] were, in that order, 9 nM and 2.9 nM.
The like results for `CCN(c1cc2oc(C3CCN(C)CC3)cc2c(C(=O)NCc2c(C)cc(C)[nH]c2=O)c1C)C1CCOCC1` [Example 15, N-((4,6-Dimethyl-2-oxo-1,2-dihydropyridin-3-yl)methyl)-6-(ethyl(tetrahydro-2H-pyran-4-yl)amino)-5-methyl-2-(1-methylpiperidin-4-yl)benzofuran-4-carboxamide] were, in that order, 13 nM and 16 nM.
`CCN(c1cc2oc(C3=CCN(C)CC3)cc2c(C(=O)NCc2c(C)cc(C)[nH]c2=O)c1C)C1CCOCC1` [Example 16, N-((4,6-Dimethyl-2-oxo-1,2-dihydropyridin-3-yl)methyl)-6-(ethyl(tetrahydro-2H-pyran-4-yl)amino)-5-methyl-2-(1-methyl-1,2,3,6-tetrahydropyridin-4-yl)benzofuran-4-carboxamide]: the IC50 with Pfeiffer cells was determined as 18 nM; at EZH2-A677G it was 31 nM.
For the molecule `CCc1c(N(CC)C2CCOCC2)cc2oc(C3CCN(C)CC3)cc2c1C(=O)NCc1c(OC)cc(C)[nH]c1=O` [Example 17, 5-Ethyl-6-(ethyl(tetrahydro-2H-pyran-4-yl)amino)-N-((4-methoxy-6-methyl-2-oxo-1,2-dihydropyridin-3-yl)methyl)-2-(1-methylpiperidin-4-yl)benzofuran-4-carboxamide], the IC50 was 9 nM with Pfeiffer cells and 9.9 nM at EZH2-A677G.
Take `CCc1c(N(CC)C2CCOCC2)cc2oc(F)cc2c1C(=O)NCc1c(OC)cc(C)[nH]c1=O` [Example 27, 5-Ethyl-6-(ethyl(tetrahydro-2H-pyran-4-yl)amino)-2-fluoro-N-((4-methoxy-6-methyl-2-oxo-1,2-dihydropyridin-3-yl)methyl)benzofuran-4-carboxamide]: the results for the IC50 with Pfeiffer cells and on EZH2-A677G were 4 nM and 3.5 nM, respectively.
The like results for `CCc1c(N(CC2CC2)C2CCOCC2)cc2oc(C3CC3)cc2c1C(=O)NCc1c(OC)cc(C)[nH]c1=O` [Example 28, 2-Cyclopropyl-6-((cyclopropylmethyl)(tetrahydro-2H-pyran-4-yl)amino)-5-ethyl-N-((4-methoxy-6-methyl-2-oxo-1,2-dihydropyridin-3-yl)methyl)benzofuran-4-carboxamide] were, in that order, 78 nM and 6.8 nM.
Take `CCN(c1cc2oc(C(F)(F)F)cc2c(C(=O)NCc2c(OC)cc(C)[nH]c2=O)c1C)C1CCOCC1` [Example 29, 6-(Ethyl(tetrahydro-2H-pyran-4-yl)amino)-N-((4-methoxy-6-methyl-2-oxo-1,2-dihydropyridin-3-yl)methyl)-5-methyl-2-(trifluoromethyl)benzofuran-4-carboxamide]: the results for the IC50 in the experiment with Pfeiffer cells and at EZH2-A677G were 17 nM and 2.7 nM, respectively.

By IC50 is commonly meant the point on the concentration scale where inhibition reaches its midpoint.
